Broadly, the Kd is the concentration at which binding is half-saturated. A high value points to lower affinity. Broadly, the IC50 is the midpoint of a concentration-inhibition curve. The low end stands for higher potency, the high end for lower potency. The inhibition is the relative decrease from the control value, in per cent.

SMILES strings stand for the structures.

Nine molecules from patent publication US11603377B2, “MTORC1 modulators and uses thereof” (Aeovian Pharmaceuticals, Inc., priority 2020, dated 2023) can be followed below.

In one assay the target is FKBP12 (Homo sapiens (Human), UniProt P62942). As to the kind of experiment: SPR assay to determine binding affinity to FKBP12 (direct binding). The following applies: immobilized biotinylated avi-FKBP12. How it is done:
SPR Assay to Determine Binding Affinity to FKBP12.
Biotinylated avi-FKBP12 was immobilized on a streptavidin chip (Cytiva Series S SA) using a Biacore 8K or 8 k+ (Cytiva). To achieve an immobilization level of 1000 RU, 2 μg/ml biotinylated avi-FKBP12 were injected for 100 sec at a flow rate of 10 μl/min. Rapalogs were diluted in DMSO to 100× working concentration. Each Rapalog was 100-fold diluted in 50 mM HEPES pH 7.5, 150 mM NaCl, 2 mM MgCl2, 1 mM DTT, 0.05% Tween-20 and a serial dilution prepared (9 concentrations, 3-fold dilutions, 0.08-500 nM). […] The compound dilutions were then injected at 100 uL/min for 120 seconds contact time in sequence with increasing concentrations. Dissociation was monitored for 3600 seconds. 50 mM HEPES pH 7.5, 150 mM NaCl, 2 mM MgCl2, 1 mM DTT, 0.05% Tween-20, 1% DMSO was used as running buffer. The single-cycle kinetics data were fit to a 1:1 binding model to measure the association rate ka (1/Ms), the dissociation rate kd (1/s) and the affinity Kd (M).
A general note: In SPR one partner is held on a chip, and binding of the other changes the refractive index at the surface.

The next assay deals with FKBP51 (Homo sapiens (Human), UniProt Q13451). As to the kind of experiment: SPR assay to determine binding affinity to FKBP51 (direct binding). The following applies: immobilized biotinylated avi-FKBP51. The procedure: Example 29: SPR Assay to Determine Binding Affinity to FKBP51
FKBP51, sequence (Q13451 whole entry): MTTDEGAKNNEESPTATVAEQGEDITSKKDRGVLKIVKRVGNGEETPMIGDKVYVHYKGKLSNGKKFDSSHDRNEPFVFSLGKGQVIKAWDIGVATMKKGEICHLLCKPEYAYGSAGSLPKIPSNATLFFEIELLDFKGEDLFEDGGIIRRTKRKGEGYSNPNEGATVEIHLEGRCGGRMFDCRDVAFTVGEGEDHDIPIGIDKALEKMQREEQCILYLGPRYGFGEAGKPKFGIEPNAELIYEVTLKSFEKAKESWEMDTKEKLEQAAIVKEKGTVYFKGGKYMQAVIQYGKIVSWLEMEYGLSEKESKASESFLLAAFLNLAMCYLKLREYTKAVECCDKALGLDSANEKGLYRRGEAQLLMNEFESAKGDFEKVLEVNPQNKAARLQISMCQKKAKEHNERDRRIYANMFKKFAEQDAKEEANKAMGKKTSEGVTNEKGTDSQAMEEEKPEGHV
Biotinylated avi-FKBP51 was immobilized on a streptavidin chip (Cytiva Series S SA) using a Biacore 8K or 8 k+ (Cytiva). To achieve an immobilization level of 2000 RU, 3 μg/ml biotinylated avi-FKBP51 were injected for 360 sec at a flow rate of 10 μl/min. Rapalogs were diluted in DMSO to 100× working concentration. Each Rapalog was 100-fold diluted in 50 mM HEPES pH 7.5, 150 mM NaCl, 2 mM MgCl2, 1 mM DTT, 0.05% Tween-20 and a serial dilution prepared (8 concentrations, 3-fold dilutions, 0.5-1000 nM). […] The compound dilutions were then injected at 100 uL/min for 120 seconds contact time and with 3600 seconds dissociation time with increasing concentrations. 50 mM HEPES pH 7.5, 150 mM NaCl, 2 mM MgCl2, 1 mM DTT, 0.05% Tween-20, 1% DMSO was used as running buffer. Multi-cycle kinetics data were fit to a 1:1 binding model to measure the association rate ka (1/Ms), the dissociation rate kd (1/s) and the affinity Kd (M).

Assay [1] deals with FKBP12 / FRB ternary complex (Homo sapiens (Human), UniProt P42345+P62942). As to the kind of experiment: SPR assay to characterize ternary complex formation with FKBP12 (FRB binding to rapalog-saturated FKBP12). The following applies: FRB dilutions with 100 nM rapalog on immobilized FKBP12. The procedure:
Example 30: SPR Assay to Characterize Ternary Complex Formation with FKBP12
(§1) Biotinylated avi-FKBP12 was immobilized on a streptavidin chip (Cytiva Series S SA) using a Biacore 8K or 8 k+ (Cytiva). To achieve an immobilization level of 100 RU, 0.3 μg/ml biotinylated avi-FKBP12 were injected for 80 sec at a flow rate of 10 μl/min. Serial dilution of FRB was prepared (12 concentrations, 3-fold dilutions, 0.00011-20 μM) and supplemented with 100 nM of rapalog. A-B-A injection mode was used to ensure saturation immobilized FKBP12 with respective rapalog. 100 nM solution of the respective rapalog was injected before FRB injection for 120 sec and during dissociation for 420 sec. The FRB dilutions were then injected 120 seconds contact time with increasing concentrations. […] 50 mM HEPES pH 7.5, 150 mM NaCl, 2 mM MgCl2, 1 mM DTT, 0.05% Tween-20, 1% DMSO was used as running buffer at a flow rate of 30 μl/min. The multi-cycle kinetics data were fit to a 1:1 binding model to measure the association rate ka (1/Ms), the dissociation rate kd (1/s) and the affinity Kd (M). In case of fast association and dissociation, steady state affinity analysis following the law of mass action was used to determine the affinity Kd (M).

Assay [2] addresses FKBP51 / FRB ternary complex (Homo sapiens (Human), UniProt P42345+Q13451). As to the kind of experiment: SPR assay to characterize ternary complex formation with FKBP51 (FRB binding to rapalog-saturated FKBP51). The following applies: FRB dilutions with 100 nM rapalog on immobilized FKBP51. How it is done:
Example 31: SPR Assay to Characterize Ternary Complex Formation with FKBP51
as §1, with “Biotinylated avi-FKBP51” for “Biotinylated avi-FKBP12”, “of 200” for “of 100”, “RU, 0.6” for “RU, 0.3”, “biotinylated avi-FKBP51” for “biotinylated avi-FKBP12”, “for 150” for “for 80”

The next assay has as its target mTORC1 (Homo sapiens (Human), UniProt P42345+P62942). As to the kind of experiment: mTORC1 inhibition, AlphaLISA of Phospho-p70 S6 kinase (p70S6K pT389) in PC-3 cells. Format: cell-based. The following applies: inhibition of p70S6K pT389 levels. For orientation: Alpha assays give light when donor and acceptor beads are brought close together.
The target of another assay is mTORC2 (Homo sapiens (Human), UniProt P42345+P62942). As to the kind of experiment: mTORC2 inhibition, AlphaLISA of Phospho-AKT (pAKT pS473) in PC3 cells. Format: cell-based. The procedure:
Example 32: mTORC1 Inhibition, mTORC2 Inhibition, Cell Lysis, AlphaLISA Experiments, and Data Analysis
mTORC2 inhibition was determined via analysis of phosphorylation level of Phospho-AKT (pAKT pS473) with the corresponding AlphaLISA kit (PerkinElmer, Alpha SF Ultra™ Multiplex p-AKT1/2/3(Ser473)/Total AKT1). PC3 cells were plated on 96 well plates in assay medium (DMEM: Ham's F12, basic (CLS Cell Lines Service GmbH, Cat #820400a), supplemented with additional 10% FBS at 1.20E+06 cells/mL and incubated over-night at 37° C., 5% CO2. On the following day, cells were treated with assay medium (10% FBS) containing increasing compound concentrations (12 points at 3-fold dilutions) and incubated for 6 hours at 37° C., 5% CO2. Thereafter, medium was aspirated and cells were rinsed with PBS. In the following, cells were treated with compound dilutions in starvation medium (DMEM: Ham's F12, basic; without FBS) for further 18 h at 37° C., 5% CO2. Then, immediately prior to cell lysis, cells were treated with 12% FBS for 15 min.
After performing experiments according to mTORC1 and mTORC2 protocols, cells were harvested in lysis buffer supplied with the AlphaLISA kits, additionally enriched with Roche cOmplete™ Protease Inhibitor Cocktail (Cat #CO-RO). Thus, cells were lysed using 50 μL of the lysis buffer and incubated for 60 min at 4° C. while shaking. After centrifugation at 4000 rpm for 5 min, experiments were performed according to the AlphaLISA manufacturer's protocol.
Ten microliters of cell lysates were mixed with the acceptor mix. After incubation for 2 h at room temperature, the donor mix was added. After additional incubation at room temperature for 2 hours, AlphaLISA signal was read on PHERAstar® FSX (BMG Labtech) with AlphaPLEX module.
EC50 values were calculated by ExcelFit standard algorithm.

FKBP12, sequence (P62942 whole entry): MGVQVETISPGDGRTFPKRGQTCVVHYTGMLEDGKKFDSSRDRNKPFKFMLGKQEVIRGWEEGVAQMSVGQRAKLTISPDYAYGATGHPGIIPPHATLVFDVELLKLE

Take `COC1CC(CC(C)C2CC(=O)C(C)C=C(C)C(O)C(OC)C(=O)C(C)CC(C)C=CC=CC=C(C)C(NS(=O)(=O)C3CC3)CC3CCC(C)C(O)(O3)C(=O)C(=O)N3CCCCC3C(=O)O2)CCC1O` (mixture of isomers) [Compound 1]: the equilibrium dissociation constant (Kd) at FKBP12 is greater than 0.001 µM; on FKBP51, 0.01 to 0.1 µM; in assay [1], 0.3 to 0.8 µM; in assay [2] it was less than 0.3 µM. The molecule further had a concentration for half-maximal inhibition (IC50) against mTORC1 of 0.0001 to 0.0008 µM. For the same molecule, the “mTORC2 % inhibition at 1 uM” value at mTORC2 is listed as “A (A ≤20% inhibition at 1 micro Molar (uM))”.

With `COCCOCCS(=O)(=O)NC1CC2CCC(C)C(O)(O2)C(=O)C(=O)N2CCCCC2C(=O)OC(C(C)CC2CCC(OCCCS(C)(=O)=O)C(OC)C2)CC(=O)C(C)C=C(C)C(O)C(OC)C(=O)C(C)CC(C)C=CC=CC=C1C` (mixture of isomers) [Compound 4], the Kd on FKBP12 was less than 0.0003 µM; on FKBP51 it was 0.01 to 0.1 µM; in assay [1] it was less than 0.3 µM; in assay [2], 0.3 to 0.8 µM. This molecule had an IC50 against mTORC1 of less than 0.0001 µM. Moreover, the “mTORC2 % inhibition at 1 uM” value at mTORC2 was “A (A ≤20% inhibition at 1 micro Molar (uM))”.

With `COCCOCCS(=O)(=O)NC1CC2CCC(C)C(O)(O2)C(=O)C(=O)N2CCCCC2C(=O)OC(C(C)CC2CCC(OCCO)C(OC)C2)CC(=O)C(C)C=C(C)C(O)C(OC)C(=O)C(C)CC(C)C=CC=CC=C1C` (mixture of isomers) [Compound 7], the Kd on FKBP12 is less than 0.0003 µM; at FKBP51, 0.01 to 0.1 µM; in assay [1], less than 0.3 µM; in assay [2], 0.3 to 0.8 µM. On mTORC1, this molecule returned a half-inhibitory concentration (IC50) of 0.0001 to 0.0008 µM. Besides, at mTORC2, the “mTORC2 % inhibition at 1 uM” value is “B (B>20% and less than 40% inhibition at 1 uM)”.

With `COCCS(=O)(=O)NC1CC2CCC(C)C(O)(O2)C(=O)C(=O)N2CCCCC2C(=O)OC(C(C)CC2CCC(OCCCO)C(OC)C2)CC(=O)C(C)C=C(C)C(O)C(OC)C(=O)C(C)CC(C)C=CC=CC=C1C` (mixture of isomers) [Compound 13], the Kd on FKBP12 was less than 0.0003 µM; at FKBP51, 0.01 to 0.1 µM; in assay [1], 0.3 to 0.8 µM; in assay [2], greater than 0.8 µM. The same molecule yielded an IC50 against mTORC1 of 0.0001 to 0.0008 µM. The “mTORC2 % inhibition at 1 uM” value at mTORC2 is “A (A ≤20% inhibition at 1 micro Molar (uM))”.

For `CCOC(=O)COC1CCC(CC(C)C2CC(=O)C(C)C=C(C)C(O)C(OC)C(=O)C(C)CC(C)C=CC=CC=C(C)C(NS(=O)(=O)CCOC)CC3CCC(C)C(O)(O3)C(=O)C(=O)N3CCCCC3C(=O)O2)CC1OC` (mixture of isomers) [Compound 14], the dissociation constant Kd at FKBP12 is 0.0003 to 0.001 µM; at FKBP51, 0.01 to 0.1 µM; in assay [1], greater than 0.8 µM; in assay [2], greater than 0.8 µM. On mTORC1, the half-maximal inhibitory concentration (IC50) was greater than 0.0008 µM. The “mTORC2 % inhibition at 1 uM” value on mTORC2 is reported as “A (A ≤20% inhibition at 1 micro Molar (uM))”.

`COC1CC(CC(C)C2CC(=O)C(C)C=C(C)C(O)C(OC)C(=O)C(C)CC(C)C=CC=CC=C(C)C(NS(=O)(=O)C3CC3)CC3CCC(C)C(O)(O3)C(=O)C(=O)N3CCCCC3C(=O)O2)CCC1OCCCO` (mixture of isomers) [Compound 15]: the Kd was less than 0.0003 µM at FKBP12, 0.01 to 0.1 µM on FKBP51, less than 0.3 µM in assay [1] and greater than 0.8 µM in assay [2]. In addition, on mTORC1, the IC50 lay in the range of 0.0001 to 0.0008 µM. Further, the “mTORC2 % inhibition at 1 uM” value at mTORC2 is recorded as “A (A ≤20% inhibition at 1 micro Molar (uM))”.

In the case of `COC1CC(CC(C)C2CC(=O)C(C)C=C(C)C(O)C(OC)C(=O)C(C)CC(C)C=CC=CC=C(C)C(OCC3CCC3)CC3CCC(C)C(O)(O3)C(=O)C(=O)N3CCCCC3C(=O)O2)CCC1O` (stereo not drawn) [Compound 37], the Kd at FKBP12 was greater than 0.001 µM; in assay [1], 0.3 to 0.8 µM; in assay [2], greater than 0.8 µM. In addition, the IC50 against mTORC1 is greater than 0.0008 µM. The “mTORC2 % inhibition at 1 uM” value on mTORC2 was “B (B>20% and less than 40% inhibition at 1 uM)”.

`CO[C@@H]1C[C@H](C[C@@H](C)[C@@H]2CC(=O)[C@H](C)/C=C(\C)[C@@H](O)[C@@H](OC)C(=O)[C@H](C)C[C@H](C)/C=C/C=C/C=C(\C)[C@H](OCC3CCC3)C[C@@H]3CC[C@@H](C)[C@@](O)(O3)C(=O)C(=O)N3CCCC[C@H]3C(=O)O2)CC[C@H]1OCCCS(C)(=O)=O` [Compound 63]: the values for the Kd (at FKBP12; in assay [1]; in assay [2]) were greater than 0.001 µM, 0.3 to 0.8 µM and greater than 0.8 µM, respectively. Besides, the half-maximal inhibitory concentration (IC50) at mTORC1 was greater than 0.0008 µM. In addition, the “mTORC2 % inhibition at 1 uM” value on mTORC2 is “C (C≥40% and less than 60% inhibition at 1 uM)”.

Molecule `CO[C@H]1C[C@@H]2CC[C@@H](C)[C@@](O)(O2)C(=O)C(=O)N2CCCC[C@H]2C(=O)O[C@H]([C@H](C)C[C@@H]2CC[C@@H](O)[C@H](OC)C2)CC(=O)[C@H](C)/C=C(\C)[C@@H](O)[C@@H](OC)C(=O)[C@H](C)C[C@H](C)/C=C/C=C/C=C/1C` [Rapamycin, reference compound] returned a dissociation constant (Kd) at FKBP51 of less than 0.01 µM. The inhibition at 1 µM at mTORC2 (PC-3, read-out: mTORC2 % inhibition at 1 uM) was no less than 60%.
